Patent publication US12617779B2, “Self degradation-type CDK9 inhibitor prodrug and liposome encapsulating same” (Sumitomo Pharma Co., Ltd., priority 2021, dated 2026)

Experiments:
[1] = Evaluation of conversion rate to active form in BALB/c mouse plasma (Experimental Example 3); format: in vitro ADME; conditions: 0.2 μmol/L; for Conversion to Alvocidib in BALB/c mouse plasma: Examples up to 60 minutes, Comparative Examples up to 120 minutes
Method in brief: (§1)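 LC-MS/MS (positive ESI) followed the parent and released Alvocidib during 37° C incubation of 0.2 μmol/L compound in human or BALB/c mouse plasma, sampled at 0/30/60 or 0/60/120 min. Remaining parent is expressed versus the 0-min peak; conversion versus a 0.2 μmol/L Alvocidib standard.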

[2] = Stability evaluation of solution formulation (Experimental Example 2); format: physicochemical; conditions: for Stability / conversion to Alvocidib in solution formulation at pH 3: pH 3, 5° C.; for Stability / conversion to Alvocidib in solution formulation at pH 3 / Stability / conversion to Alvocidib in solution formulation at pH 4: up to 4 weeks; for Stability / conversion to Alvocidib in solution formulation at pH 4: pH 4, 5° C.
Protocol: For Example 1, Example 2, Example 5, Example 6, Comparative Example 13 and Comparative Example 14, the attrition rate of the test compound and the conversion rate of the test compound to Alvocidib in a solution formulation were calculated by the following method.
Example 1, Example 2, Example 5, Example 6, Comparative Example 13 and Comparative Example 14 were each added to buffer solutions adjusted to pH 3.0, 4.0 and 5.0, respectively, at a concentration of 0.1 mg/mL, and left at 5° C. After 0, 1, 2 and 4 weeks, the residual rates of the compounds of Example 1, Example 2, […], Comparative Example 13 and Comparative Example 14 and the production rate of Alvocidib were determined by HPLC.
The buffer solutions used at each pH are as follows. • pH 3.0: 5 mM tartrate buffer solution/10% sucrose solution (pH 3.0) • pH 4.0: 5 mM tartrate buffer solution/10% sucrose solution (pH 4.0) • pH 5.0: 5 mM tartrate buffer solution/10% sucrose solution (pH 5.0)
The measurement conditions for HPLC are as follows.
• column: Acquity UPLC BEH C18, 1.7 um, 50×2.1 mm • column temperature: 40° C. • mobile phase: • A: water containing 0.1% trifluoroacetic acid • B: acetonitrile • A/B (min): • 80/20(0)→75/25(3)→0/100(3.5)→0/100(4)→80/20(4.01)→80/20(5) • flow rate: 0.8 mL/min • detection: ultraviolet visible detector, measurement wavelength 254 nm • injection: 3 μL

[3] = Evaluation of conversion rate to active form in human plasma (Experimental Example 3); format: in vitro ADME; conditions: 0.2 μmol/L; for Conversion to Alvocidib in human plasma: Examples up to 60 minutes, Comparative Examples up to 120 minutes
Method in brief: as §1

[4] = solution formulation, pH3.0, 0 week
[5] = solution formulation, pH3.0, 1 week
[6] = solution formulation, pH3.0, 2 week
[7] = solution formulation, pH3.0, 4 week
[8] = solution formulation, pH4.0, 0 week
[9] = solution formulation, pH4.0, 1 week
[10] = solution formulation, pH4.0, 2 week
[11] = solution formulation, pH4.0, 4 week
[12] = solution formulation, pH5.0, 0 week
[13] = solution formulation, pH5.0, 1 week
[14] = solution formulation, pH5.0, 2 week
[15] = solution formulation, pH5.0, 4 week

| SMILES | Conversion to Alvocidib in BALB/c mouse plasma ([1]; 37° C.) | Residual rate (%) of test compound ([1]; Mouse plasma, 37° C., 0 min) | Residual rate (%) of test compound ([1]; Mouse plasma, 37° C., 30 min) | Residual rate (%) of test compound ([1]; Mouse plasma, 37° C., 60 min) | Stability / conversion to Alvocidib in solution formulation at pH 3 [2] | Stability / conversion to Alvocidib in solution formulation at pH 4 [2] | Production rate of Alvocidib [2, 4] | Production rate of Alvocidib [2, 5] | Production rate of Alvocidib [2, 6] | Production rate of Alvocidib [2, 7] | Production rate of Alvocidib [2, 8] | Production rate of Alvocidib [2, 9] | Production rate of Alvocidib [2, 10] | Production rate of Alvocidib [2, 11] | Production rate of Alvocidib [2, 12] | Production rate of Alvocidib [2, 13] | Residual rate (%) of test compound ([3]; Human plasma, 37° C., 0 min) | Residual rate (%) of test compound ([3]; Human plasma, 37° C., 30 min) | Residual rate (%) of test compound ([3]; Human plasma, 37° C., 60 min) | Conversion to Alvocidib in human plasma ([3]; 37° C.) | other results |
| --- | --- | --- | --- | --- | --- | --- | --- | --- | --- | --- | --- | --- | --- | --- | --- | --- | --- | --- | --- | --- | --- |
| CCCN(C[C@H]1CCCCN1)C(=O)Oc1cc(O)c2c(=O)cc(-c3ccccc3Cl)oc2c1[C@H]1CCN(C)C[C@H]1O [Example 6, 2-(2-chlorophenyl)-5-hydroxy-8-[(3S,4R)-3-hydroxy-1-methylpiperidin-4-yl]-4-oxo-4H-1-benzopyran-7-yl {[(2R)-piperidin-2-yl]methyl}propylcarbamate] | proceeded rapidly | 100% | 26% | 2% | stable | stable | 0.5% | 0.5% | 0.6% | 0.6% | 0.5% | 0.7% | 0.8% | 0.9% | 0.7% | 1.6% | 100% | 3% | 2% | proceeded rapidly | Residual rate [2, 4]: 98.8%; Residual rate [2, 5]: 98.8%; Residual rate [2, 6]: 98.8%; Residual rate [2, 7]: 98.8%; Residual rate [2, 8]: 98.8%; Residual rate [2, 9]: 98.7%; Residual rate [2, 10]: 98.5%; Residual rate [2, 11]: 98.2%; Residual rate [2, 12]: 98.7%; Residual rate [2, 13]: 97.0%; Production rate of Alvocidib [2, 14]: 2.6%; Residual rate [2, 14]: 95.3%; Production rate of Alvocidib [2, 15]: 4.6%; Residual rate [2, 15]: 91.8% |
| CCN(C[C@@H]1CCCCN1)C(=O)Oc1cc(O)c2c(=O)cc(-c3ccccc3Cl)oc2c1[C@H]1CCN(C)C[C@H]1O [Example 1, 2-(2-chlorophenyl)-5-hydroxy-8-[(3S,4R)-3-hydroxy-1-methylpiperidin-4-yl]-4-oxo-4H-1-benzopyran-7-yl ethyl{[(2S)-piperidin-2-yl]methyl}carbamate ditrifluoroacetate] | proceeded rapidly | 100% | 24% | 3% | stable | stable | 0.0% | 0.0% | 0.1% | 0.1% | 0.0% | 0.1% | 0.2% | 0.4% | 0.1% | 1.2% | 100% | 6% | 0% | proceeded rapidly | Residual rate ([2]; solution formulation pH3.0, 0 week, 5° C., 0.1 mg/mL): 99.2%; Residual rate ([2]; solution formulation pH3.0, 1 week, 5° C., 0.1 mg/mL): 99.2%; Residual rate ([2]; solution formulation pH3.0, 2 weeks, 5° C., 0.1 mg/mL): 99.0%; Residual rate ([2]; solution formulation pH3.0, 4 weeks, 5° C., 0.1 mg/mL): 99.0%; Residual rate ([2]; solution formulation pH4.0, 0 week, 5° C., 0.1 mg/mL): 99.5%; Residual rate ([2]; solution formulation pH4.0, 1 week, 5° C., 0.1 mg/mL): 99.3%; Residual rate ([2]; solution formulation pH4.0, 2 weeks, 5° C., 0.1 mg/mL): 99.1%; Residual rate ([2]; solution formulation pH4.0, 4 weeks, 5° C., 0.1 mg/mL): 99.1%; Residual rate ([2]; solution formulation pH5.0, 0 week, 5° C., 0.1 mg/mL): 99.4%; Residual rate ([2]; solution formulation pH5.0, 1 week, 5° C., 0.1 mg/mL): 98.5%; Residual rate ([2]; solution formulation pH5.0, 2 weeks, 5° C., 0.1 mg/mL): 97.6%; Residual rate ([2]; solution formulation pH5.0, 4 weeks, 5° C., 0.1 mg/mL): 96.5%; Production rate of Alvocidib [2, 14]: 1.9%; Production rate of Alvocidib [2, 15]: 3.2% |
| C[C@H](N)C(=O)O[C@@H]1CN(C)CC[C@@H]1c1c(O)cc(O)c2c(=O)cc(-c3ccccc3Cl)oc12 [Comparative Example 7, reference compound] | – | – | – | – | – | – | – | – | – | – | – | – | – | – | – | – | – | – | – | – | Production rate (%) of Alvocidib ([1]; BALB/c, mouse, 0 min): 1%; Residual rate (%) of test compound ([1]; BALB/c, mouse, 0 min): 100%; Production rate (%) of Alvocidib ([1]; BALB/c, mouse, 60 min): 64%; Residual rate (%) of test compound ([1]; BALB/c, mouse, 60 min): 25%; Production rate (%) of Alvocidib ([1]; BALB/c, mouse, 120 min): 79%; Residual rate (%) of test compound ([1]; BALB/c, mouse, 120 min): 10%; Production rate (%) of Alvocidib ([3]; human, 0 min): 6%; Residual rate (%) of test compound ([3]; human, 0 min): 100%; Production rate (%) of Alvocidib ([3]; human, 60 min): 26%; Residual rate (%) of test compound ([3]; human, 60 min): 77%; Production rate (%) of Alvocidib ([3]; human, 120 min): 32%; Residual rate (%) of test compound ([3]; human, 120 min): 65% |
| CN1CC[C@H](c2c(OC(=O)N(C)C[C@@H]3CCCCN3)cc(O)c3c(=O)cc(-c4ccccc4Cl)oc23)[C@H](O)C1 [Example 3, 2-(2-chlorophenyl)-5-hydroxy-8-[(3S,4R)-3-hydroxy-1-methylpiperidin-4-yl]-4-oxo-4H-1-benzopyran-7-yl methyl{[(2S)-piperidin-2-yl]methyl}carbamate] | proceeded rapidly | 100% | 8% | 0% | – | – | – | – | – | – | – | – | – | – | – | – | 100% | 3% | 0% | proceeded rapidly | – |
| CN1CC[C@H](c2c(O)cc(O)c3c(=O)cc(-c4ccccc4Cl)oc23)[C@H](OC(=O)[C@@H](N)CO)C1 [Comparative Example 9, reference compound] | – | – | – | – | – | – | – | – | – | – | – | – | – | – | – | – | – | – | – | – | Production rate (%) of Alvocidib ([1]; BALB/c, mouse, 0 min): 3%; Residual rate (%) of test compound ([1]; BALB/c, mouse, 0 min): 100%; Production rate (%) of Alvocidib ([1]; BALB/c, mouse, 60 min): 33%; Residual rate (%) of test compound ([1]; BALB/c, mouse, 60 min): 70%; Production rate (%) of Alvocidib ([1]; BALB/c, mouse, 120 min): 43%; Residual rate (%) of test compound ([1]; BALB/c, mouse, 120 min): 54%; Production rate (%) of Alvocidib ([3]; human, 0 min): 3%; Residual rate (%) of test compound ([3]; human, 0 min): 100%; Production rate (%) of Alvocidib ([3]; human, 60 min): 18%; Residual rate (%) of test compound ([3]; human, 60 min): 85%; Production rate (%) of Alvocidib ([3]; human, 120 min): 25%; Residual rate (%) of test compound ([3]; human, 120 min): 80% |
| CN1CC[C@H](c2c(OC(=O)N(C)C[C@H]3CCCCN3)cc(O)c3c(=O)cc(-c4ccccc4Cl)oc23)[C@H](O)C1 [Example 4, 2-(2-chlorophenyl)-5-hydroxy-8-[(3S,4R)-3-hydroxy-1-methylpiperidin-4-yl]-4-oxo-4H-1-benzopyran-7-yl methyl{[(2R)-piperidin-2-yl]methyl}carbamate] | proceeded rapidly | 100% | 5% | 3% | – | – | – | – | – | – | – | – | – | – | – | – | 100% | 4% | 4% | proceeded rapidly | – |
